Source: the NIST ThermoML archive (doi:10.1021/je060271a)

Conditions: 283.15 K, Liquid, Vibrating tube method

CCCCCC(=O)OCC(COC(=O)CCCCC)(COC(=O)CCCCC)COC(=O)CCCCC [pentaerythritol tetrahexanoate]
Conditions | mass density [kg/m3]
7124.1 kPa | 1008.3
7135 kPa | 1008.3
7146.2 kPa | 1008.3
7159.7 kPa | 1008.3
7170.9 kPa | 1008.3
7182 kPa | 1008.3
7193.4 kPa | 1008.3
7206.5 kPa | 1008.3
7217.2 kPa | 1008.4
7228.4 kPa | 1008.3
7241.6 kPa | 1008.4
7252.8 kPa | 1008.4
7264.2 kPa | 1008.4
7277.8 kPa | 1008.3
7289 kPa | 1008.4
7300.4 kPa | 1008.3
7311.8 kPa | 1008.3
7323.4 kPa | 1008.3
7336.9 kPa | 1008.4
7348.4 kPa | 1008.4
7360.2 kPa | 1008.3
7373.8 kPa | 1008.5
7385.4 kPa | 1008.3
7396.9 kPa | 1008.4
7408.7 kPa | 1008.5
7422.7 kPa | 1008.5
7434.6 kPa | 1008.5
7446.5 kPa | 1008.5
7458.6 kPa | 1008.5
7472.7 kPa | 1008.5
7484.8 kPa | 1008.6
7496.7 kPa | 1008.4
7508.6 kPa | 1008.6
7523.2 kPa | 1008.5
7534.9 kPa | 1008.5
7547.3 kPa | 1008.6
7561.6 kPa | 1008.5
7573.6 kPa | 1008.5
7586 kPa | 1008.5
7598.2 kPa | 1008.6
7613.2 kPa | 1008.4
7625.9 kPa | 1008.6
7637.9 kPa | 1008.6
7650.7 kPa | 1008.5
7665 kPa | 1008.6
7678 kPa | 1008.5
7690.4 kPa | 1008.6
7705.3 kPa | 1008.7
7717.7 kPa | 1008.6
7730.5 kPa | 1008.7
7742.7 kPa | 1008.6
7758.4 kPa | 1008.7
7771.4 kPa | 1008.7
7784.3 kPa | 1008.7
7798.4 kPa | 1008.5
7811.2 kPa | 1008.7
7826.7 kPa | 1008.7
7839.6 kPa | 1008.8
7852.8 kPa | 1008.8
7866 kPa | 1008.8
7881.9 kPa | 1008.7
7895 kPa | 1008.7
7908.3 kPa | 1008.7
7924.2 kPa | 1008.7
7937.3 kPa | 1008.7
7950.8 kPa | 1008.6
7967.7 kPa | 1008.7
7978.6 kPa | 1008.7
7994.5 kPa | 1008.8
8008.3 kPa | 1008.8
8022.4 kPa | 1008.7
8036.2 kPa | 1008.9
8052.3 kPa | 1008.8
8065.9 kPa | 1008.8
8080.1 kPa | 1008.9
8094.4 kPa | 1008.8
8110.8 kPa | 1008.9
8125.1 kPa | 1008.8
8139.2 kPa | 1008.8
8153.4 kPa | 1008.9
8167.7 kPa | 1008.8
8184.9 kPa | 1008.9
8199.1 kPa | 1008.8
8213.4 kPa | 1008.9
8230.8 kPa | 1008.9
8245.5 kPa | 1008.9
8259.8 kPa | 1008.8
8274.5 kPa | 1009
8291.9 kPa | 1008.9
8306.6 kPa | 1009
8320.7 kPa | 1009
8335.5 kPa | 1009.1
8385.6 kPa | 1009
8400.7 kPa | 1009
8415.4 kPa | 1009.1
8430.1 kPa | 1009
8447.5 kPa | 1009
8463 kPa | 1009
8478 kPa | 1009.1
8496.3 kPa | 1009.1
8511.3 kPa | 1009
8529.1 kPa | 1009.1
8544.6 kPa | 1009.1
8560.6 kPa | 1009.1
8576.2 kPa | 1009.1
8594.8 kPa | 1009.1
8609.8 kPa | 1009.2
8625.5 kPa | 1009.1
8644.3 kPa | 1009.3
8659.6 kPa | 1009.2
8678.4 kPa | 1009.2
8694.4 kPa | 1009.1
8710.5 kPa | 1009.1
8729.5 kPa | 1009.2
8745.1 kPa | 1009.1
8761.5 kPa | 1009.1
8778.1 kPa | 1009.3
8797.7 kPa | 1009.2
8813.6 kPa | 1009.3
8833.4 kPa | 1009.1
8849.8 kPa | 1009.3
8865.8 kPa | 1009.3
8882.4 kPa | 1009.2
8902.4 kPa | 1009.2
8919.1 kPa | 1009.3
8935.3 kPa | 1009.3
8955.5 kPa | 1009.4
8972.2 kPa | 1009.2
8992.6 kPa | 1009.4
9009.6 kPa | 1009.3
9026.7 kPa | 1009.4
9043.4 kPa | 1009.5
9063.8 kPa | 1009.4
9081 kPa | 1009.3
9098.4 kPa | 1009.5
9118.9 kPa | 1009.4
9136.1 kPa | 1009.4
9156.6 kPa | 1009.4
9173.7 kPa | 1009.4
9191.1 kPa | 1009.5
9212.2 kPa | 1009.5
9230.4 kPa | 1009.5
9249.2 kPa | 1009.5
9266.9 kPa | 1009.5
